# Earlier results in US20050065183A1 (priority 2003, published 2005).
# Test system: muscarinic
smiles,measurement,value
"CC(C)(C(=O)O)c1ccc(C(O)CCCN2CCC(C(O)(c3ccccc3)c3ccccc3)CC2)cc1 (stereo not drawn) [Fexofenadine, 4-[4-[4-(hydroxydiphenylmethyl)-1-piperidinyl]-1-hydroxybutyl]-α,α-dimethylbenzeneacetic acid]",antimuscarinic activity,weak
